{"source": "patent US20260071252A1", "about": "“REVERSIBLE NANOPARTICLE AGGREGATES AND METHODS FOR DETECTING PROTEASES” (The Regents of the University of California, priority 2022, published 2026)", "key": {"[1]": {"test": "Dissociation of AgNP aggregates by A18 fragments released by Mpro cleavage", "settings": "AgNPs 20 nm, color from blue to yellow"}, "[2]": {"biological_target": "SARS-CoV-2 main protease (Mpro) (Severe acute respiratory syndrome coronavirus 2, UniProt P0DTD1)"}, "HS-PEG-RRK conjugate": {"system": "T1, HS-PEG-RRK conjugate", "T1 sequence": "RRK"}, "HS-PEG-RRKRRK conjugate": {"system": "T2, HS-PEG-RRKRRK conjugate", "T2 sequence": "RRKRRK"}, "[3]": {"system": "T3, HS-PEG-RRKRRKRRK conjugate", "T3 sequence": "RRKRRKRRK"}, "HS-PEG-TSG conjugate": {"system": "T4, HS-PEG-TSG conjugate", "T4 sequence": "TSG"}, "trypsin": {"system": "trypsin", "test": "Trypsin sensing with HS-PEG-peptide conjugates and Arg-Arg-AuNPs assemblies", "format": "biochemical", "method": "Peptides containing the motif Arg-Arg-Lys (RRK) were thus conjugated to a thiolated PEG capped with a carboxyl group (HS-PEG12-COOH, Mw=634 Da) via EDC/NHS cross-linking reaction. Three peptides based on the motif RRK were investigated and the number of RRK repetitions varied from 1 to 3 to increase the mass and charge of the resulting HS-PEG-peptide conjugate (FIG. 6A).\nFrom concentrations of 10 μM, HS-PEG12-COOH is capable to dissociate 100% of the assemblies (FIG. 21). However, the conjugation of the peptides to the HS-PEG12-COOH was expected to decrease its capacity to dissociate the assemblies as it increases its size and charge. In this context, the addition of the HS-PEG-peptide conjugates to AuNPs assemblies could not generate a colorimetric signal. However, in the presence of trypsin, the proteolytic cleavage could progressively remove the amino acids residues from the conjugate, thus reducing its size and charge that would restore the dissociation capacity. A colorimetric signal, proportional to the trypsin activity, could thus be observed (FIG. 6B).\nTypically, 1 mL of HS-PEG12-COOH (HS—(CH2CH2O)12—CH2CH2COOH, 634 Da, 1 mM) dissolved in MES buffer (10 mM, pH=5.5) was activated via the addition of 100 μL of EDC (50 mM, MES) and 40 μL of NHS (500 mM, MES). The reaction was stirred at room temperature for one hour. After one hour, 1 mL of peptide (or NH2-molecule) (1 mM) dissolved in PBS (100 mM, pH=7.4) was added to the activated HS-PEG12-COOH. The reaction was stirred for 4 hours at room temperature and then stored at 4° C.\nTypically, 5 μL of the PEG-peptide conjugate (0.44 mM) were added to 5 μL of PBS 1×. […] At the end of the incubation, 100 μL of aggregated AuNPs (Arg-Arg-AuNPs) were added, and a color change proportional to the trypsin concentration was observed. UV-Vis spectra were recorded 30 minutes later."}, "trypsin activity": {"system": "trypsin activity", "test": "Detection of trypsin activity in vivo with photoacoustic imaging, gold nanorods assemblies", "settings": "mouse model"}, "[4]": {"test": "Dissociation of Arg-Arg-AuNPs assemblies with HS-PEGs (UV-Vis percentage of dissociation, MANTA size)", "excerpt": "Dissociation of the AuNPs assemblies. […] HS-PEG6-OCH3 was chosen because its grafting on AuNPs ensure a high colloidal stability of these latter. Indeed, the grafting of thiolated PEGs has been widely reported in the literature via the formation of a strong Au—S bond conferring to the particles a high colloidal stability due to a combination of hydrophilicity and steric hindrance.^30-32 The Au—S bond being stronger than the arginine-citrate, arginine-gold or even citrate-gold interactions, […] was expected to be capable of progressively replacing the arginine/citrate layers at the gold surface, disrupting the electrostatic network, and eventually dispersing the AuNPs (Scheme 1). Briefly, aqueous suspensions Arg-Arg-AuNPs assemblies were exposed to increasing concentrations of HS-PEG6-OCH3, and the dissociation of the assemblies was characterized by TEM, MANTA, FTIR and UV-Vis spectroscopies (FIG. 2).\nThe presence of a PEG layer around the AuNPs explains the difference in the hydrodynamic diameter versus the initial AuNPs-citrate (48±32 nm vs 40±25 nm). Remarkably, the LSPR band of the dissociated AuNPs was identical to the AuNPs-citrate: The color of the sample returned to its initial bright red color. […] For the remainder of this study, the efficiency of the dissociation will be characterized by the percentage of dissociation (%) as measured by UV-Vis spectroscopy (comparison between the LSPR band after dissociation versus that from AuNPs-citrate). See the experimental section in the supporting information for more details. […] This finding is particularly interesting because the typical grafting density of HS-PEG6-OCH3 on dispersed AuNPs is reported to be between 3.5 and 4 HS-PEG6-OCH3/nm^2.^33 This implies that no excess of HS-PEGs was needed to dissociate the entire assembly-only enough to cover all the gold surface. It is worth noting that the kinetics of the dissociation was almost instantaneous (equilibrium reached within a minute) (FIG. 14). A video of the dissociation of the AuNPs assemblies is available online.\nDissociation. Stock solutions of the different HS-PEGs with concentrations ranging from 10 μM to 1 mM were prepared. Specific volumes of each solution were added to a 96-well plate in order to reach the desired final HS-PEGs concentration and then 100 μL of Arg-Arg-AuNPs were added. For complex matrices experiments, the Arg-Arg-AuNPs were first concentrated 10 times by centrifugation and then dispersed in complex media (sea water, pooled human saliva, plasma, urine, bile or HEK cell lysates) that represented thus 90% of the total volume except for bile, which was only 20%. Quickly after the addition of AuNPs, the dissociation of the assembly was monitored and the ratio of the absorbances at 520 nm and 700 nm was recorded over time. The percentage of dissociation is described as follows:\nThe optical absorption measurements were collected using a hybrid multi-mode microplate reader (Synergy™ H1 model, BioTek Instruments, Inc.) in a 96-well plate. The dissociation of assembly was characterized by measuring the ratio of the absorbance at 520 nm or 530 nm and 700 nm or 820 nm for 20 nm NPs or 40 nm NPs, respectively.\nThe multispectral advanced nanoparticle tracking analysis (MANTA) is a technique that builds images from the particles' light scattering via three lasers of different wavelengths (for example, blue, green, and red); the wavelength of scattering depends on nanoparticle size. Thus, small particles (less than, or <, 100 nm) appear blue while larger particles appear greener or redder. MANTA uses these images to count the nanoparticles and calculate their size based on Brownian motion. […] 3000™ (Horiba Scientific, USA). The temperature was set to 25° C. during the measurement. Automated noise analysis determines the optimal wavelength for representing each nanoparticle. Here, 8-bit composite videos were generated, and 10 videos were used per analysis (300 frames for seconds)."}, "[5]": {"test": "Dissociation efficiency of HS-PEG6-OCH3 for alternative assembly conditions or coating ligands", "settings": "high concentration (>100 μM) of HS-PEG6-OCH3", "quoted_text": "First, peptide-free conditions were used to promote the assembly of AuNPs-citrate and its dissociation with HS-PEG6-OCH3 was evaluated (FIG. 3A). Here, salts were added to AuNPs-citrate to induce aggregation via disruption of the electrostatic repulsion forces between the particles. […] Unlike the peptide Arg-Arg, these ions cannot sterically prevent the AuNPs from falling in an irreversible aggregated state.\nAuNPs with different coating ligands were also evaluated and compared to citrate: bis(p-sulfonatophenyl)phenylphosphine (BSPP), mercaptobenzoic acid (MBA), or thiolated PEG-COOH (HS-PEG-COOH; Mw=634 g·mol^−1). […] This is because MBA and HS-PEG-COOH make covalent Au—S bonds with the gold surface that prevent subsequent grafting of HS-PEG6-OCH3.\nFinally, an alternative control peptide was used for assembly (Cys-Arg-Lys)."}}, "note": "Where no end group is shown, it is not given here."}
{"molecule": "CGGKKEEAVLQ [A18 fragment]", "values": [{"measurement": "dissociation of AgNP aggregates", "setting": "[1]", "result": "could dissociate AgNP aggregates"}, {"measurement": "CDC", "setting": "[2]", "result": 40, "unit": "µM"}, {"measurement": "size of AuNP aggregates after dissociation", "setting": "[2]", "result": "26±0.30", "unit": "nm"}, {"measurement": "surface charge after dissociation", "setting": "[2]", "result": "−27±0.95", "unit": "mV"}, {"measurement": "time for dissociation", "setting": "[2]", "result": "≤ 10", "unit": "min"}]}
{"molecule": "trypsin", "values": [{"measurement": "dissociation capacity for Arg-Arg-AuNPs after trypsin digestion", "setting": "HS-PEG-RRK conjugate", "result": "HS-PEG-RRK was also enhanced"}, {"measurement": "dissociation capacity for Arg-Arg-AuNPs after trypsin digestion", "setting": "HS-PEG-RRKRRK conjugate", "result": "the dissociation capacity of HS-PEG-RRKRRK (SEQ ID NO:13) and HS-PEG-[..] (SEQ ID NO:14) was restored"}, {"measurement": "dissociation capacity for Arg-Arg-AuNPs after trypsin digestion", "setting": "[3]", "result": "the dissociation capacity of HS-PEG-RRKRRK (SEQ ID NO:13) and HS-PEG-[..] (SEQ ID NO:14) was restored"}, {"measurement": "dissociation capacity for Arg-Arg-AuNPs after trypsin digestion", "setting": "HS-PEG-TSG conjugate", "result": "It is not impacted by the digestion by trypsin"}]}
{"molecule": "HS-PEG-RRKRRK: HS-PEG12-COOH conjugated to peptide RRKRRK via EDC/NHS; mixture of single and multiple conjugations (also: HS-PEG12 conjugated via EDC/NHS, site not given here, mixture of single and multiple conjugations)", "values": [{"measurement": "dissociation capacity of the intact conjugate", "setting": "trypsin; titrated to Arg-Arg-AuNPs, up to >100 μM, no trypsin", "result": "total quenching of the dissociation capacity"}, {"measurement": "dissociation capacity after digestion with trypsin", "setting": "trypsin; trypsin 10 μM, 37° C., 24 h", "result": "restored"}, {"measurement": "limit of detection of trypsin", "setting": "trypsin; visual detection", "result": "picomolar"}, {"measurement": "photoacoustic signal", "setting": "trypsin activity", "result": "increase of photoacoustic signal"}]}
{"molecule": "COCCOCCOCCOCCOCCOCCOCCS", "note": "[HS-PEG6-OCH3, 0-(2-mercaptoethyl)-O′-methyl-hexa(ethylene glycol)]", "values": [{"measurement": "size of the aggregates (MANTA)", "setting": "[4]; 2 μM HS-PEG6-OCH3, 10 minutes, from 467±120 nm", "result": "167±112", "unit": "nm"}, {"measurement": "average size of the aggregates (MANTA)", "setting": "[4]; 4 μM HS-PEG6-OCH3", "result": "136±85", "unit": "nm"}, {"measurement": "average size of the aggregates (MANTA)", "setting": "[4]; 8 μM HS-PEG6-OCH3", "result": "124±75", "unit": "nm"}, {"measurement": "dissociation in complex matrices", "setting": "[4]; 10 μM HS-PEG6-OCH3, plasma, urine, saliva, bile, HEK 293 cell lysates, sea water, matrix at least 90% of volume", "result": "At least 80%"}, {"measurement": "aggregates dissociated", "setting": "[4]; 12 μM HS-PEG6-OCH3, LSPR band identical to AuNPs-citrate", "result": 100, "unit": "%"}, {"measurement": "mean size (MANTA)", "setting": "[4]; 12 μM HS-PEG6-OCH3 and above", "result": "48±25", "unit": "nm"}, {"measurement": "dissociation of the assembly by HS-PEG6-OCH3", "setting": "[5]", "result": "could not dissociate the assemblies"}]}
